Experimental data: patent US20220211662A1, “METHOD OF TREATING CANCER BY ADMINISTERING AN EPIGALLOCATECHIN GALLATE COMBINED WITH TYROSINE KINASE INHIBITOR” (Yunnan Daye Dihong Biotechnology Co., Ltd., priority 2019, published 2022)

Key:
A431 transplanted tumor = experiment: A431 heterotransplanted tumor model in nude mouse
NCI-H1666 cells = experiment: MTT cell viability, NCI-H1666 cells; format: cell-based, human; details: 24 hours
Source text: Detection Principle: MTT method to detect cell viability
A container is best wrapped with aluminum foil paper.
Otherwise, it is difficult to reflect the real situation. […] A sample is prevented from being volatilized.

| Structure (SMILES) | body weight of A431 tumor-bearing mouse (A431 transplanted tumor; compared with control group) | growth of NCI-H1666 cells (NCI-H1666 cells; in the presence of EGF) | survival rate / growth of NCI-H1666 cells (NCI-H1666 cells; without EGF) | tumor volume growth (A431 transplanted tumor; A431 transplanted tumor, combined use compared with Gefitinib alone treatment group) |
| --- | --- | --- | --- | --- |
| O=C(O[C@@H]1Cc2c(O)cc(O)cc2O[C@@H]1c1cc(O)c(O)c(O)c1)c1cc(O)c(O)c(O)c1 [EGCG, EPIGALLOCATECHIN GALLATE] | promote the weight increase | – | – | – |
| COc1cc2ncnc(Nc3ccc(F)c(Cl)c3)c2cc1OCCCN1CCOCC1 [Gefitinib] | – | does not have a significant inhibitory effect | significant inhibitory effect | better inhibitory effect |
